# Laboratory results reported in PubChem BioAssay (NCI).
#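 In this assay, cells in 96-well plates receive the compound at five concentrations for 48 hours. Endpoints are linearly interpolated between the surrounding concentrations. TGI: concentration producing complete growth inhibition.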
# Tests used:
# Experiment in all cases: NCI-60 cell line screen, 48 h
# [1] = test system: 786-0 renal
# [2] = test system: A498 renal
# [3] = test system: A549 NSCLC
# [4] = test system: ACHN renal
# [5] = test system: CAKI-1 renal
# [6] = test system: CCRF-CEM leukemia
# [7] = test system: COLO 205 colon
# [8] = test system: DU-145 prostate
# [9] = test system: HCC-2998 colon
# [10] = test system: HCT-116 colon
# [11] = test system: HCT-15 colon
# [12] = test system: HOP-62 NSCLC
# [13] = test system: HS 578T breast
# [14] = test system: HT29 colon
# [15] = test system: K-562 leukemia
# [16] = test system: KM12 colon
# [17] = test system: LOX IMVI melanoma
# [18] = test system: M14 melanoma
# [19] = test system: MDA-MB-435
# [20] = test system: MDA-N
# [21] = test system: MOLT-4 leukemia
# [22] = test system: NCI-H226 lung
# [23] = test system: NCI-H23 lung
# [24] = test system: NCI-H460 lung
# [25] = test system: NCI-H522 lung
# [26] = test system: NCI/ADR-RES ovarian
# [27] = test system: OVCAR-3 ovarian
# [28] = test system: OVCAR-4 ovarian
# [29] = test system: OVCAR-5 ovarian
# [30] = test system: OVCAR-8 ovarian
# [31] = test system: PC-3 prostate
# [32] = test system: SF-268 CNS
# [33] = test system: SF-295 CNS
# [34] = test system: SK-MEL-2 melanoma
# [35] = test system: SK-MEL-28 melanoma
# [36] = test system: SK-MEL-5 melanoma
# [37] = test system: SK-OV-3 ovarian
# [38] = test system: SN12C renal
# [39] = test system: SNB-19 CNS
# [40] = test system: SNB-75 CNS
# [41] = test system: SR leukemia
# [42] = test system: SW-620 colon
# [43] = test system: T-47D breast
# [44] = test system: TK-10 renal
# [45] = test system: U251 CNS
# [46] = test system: UACC-257 melanoma
# [47] = test system: UACC-62 melanoma
# [48] = test system: UO-31 renal
# [49] = test system: BT-549 breast
# [50] = test system: EKVX NSCLC
# [51] = test system: HL-60(TB) leukemia
# [52] = test system: HOP-92 NSCLC
# [53] = test system: IGROV1 ovarian
# [54] = test system: MCF7 breast
# [55] = test system: RPMI-8226 leukemia
# [56] = test system: RXF 393 renal
# [57] = test system: MALME-3M melanoma
# [58] = test system: MDA-MB-231 breast
# [59] = test system: SF-539 CNS
smiles,measurement,setting,value
C=CC[C@@H]1C(=O)[C@@]2(O[Si](C(C)C)(C(C)C)C(C)C)CC[C@@H]1C[C@H]2NC(=O)OCC(Cl)(Cl)Cl,TGI,[1],> 100 µM
same,TGI,[2],> 100 µM
same,TGI,[3],> 100 µM
same,TGI,[4],> 100 µM
same,TGI,[5],> 100 µM
same,TGI,[6],> 100 µM
same,TGI,[7],> 100 µM
same,TGI,[8],> 100 µM
same,TGI,[9],> 100 µM
same,TGI,[10],> 100 µM
same,TGI,[11],> 100 µM
same,TGI,[12],> 100 µM
same,TGI,[13],> 100 µM
same,TGI,[14],> 100 µM
same,TGI,[15],> 100 µM
same,TGI,[16],> 100 µM
same,TGI,[17],> 100 µM
same,TGI,[18],> 100 µM
same,TGI,[19],> 100 µM
same,TGI,[20],> 100 µM
same,TGI,[21],> 100 µM
same,TGI,[22],> 100 µM
same,TGI,[23],> 100 µM
same,TGI,[24],> 100 µM
same,TGI,[25],0.0356 µM
same,TGI,[26],> 100 µM
same,TGI,[27],> 100 µM
same,TGI,[28],> 100 µM
same,TGI,[29],> 100 µM
same,TGI,[30],> 100 µM
same,TGI,[31],> 100 µM
same,TGI,[32],> 100 µM
same,TGI,[33],85.8 µM
same,TGI,[34],> 100 µM
same,TGI,[35],> 100 µM
same,TGI,[36],> 100 µM
same,TGI,[37],> 100 µM
same,TGI,[38],> 100 µM
same,TGI,[39],> 100 µM
same,TGI,[40],> 100 µM
same,TGI,[41],> 100 µM
same,TGI,[42],> 100 µM
same,TGI,[43],> 100 µM
same,TGI,[44],> 100 µM
same,TGI,[45],> 100 µM
same,TGI,[46],> 100 µM
same,TGI,[47],> 100 µM
same,TGI,[48],> 100 µM
Cc1cc(OCC(=O)N/N=C/C(Br)=C/c2ccccc2)nc(SCC(=O)N/N=C/C(Br)=C/c2ccccc2)n1,TGI,[1],> 100 µM
same,TGI,[2],> 100 µM
same,TGI,[4],> 100 µM
same,TGI,[49],> 100 µM
same,TGI,[5],> 100 µM
same,TGI,[6],> 100 µM
same,TGI,[7],> 100 µM
same,TGI,[8],> 100 µM
same,TGI,[50],> 100 µM
same,TGI,[9],82.9 µM
same,TGI,[10],> 100 µM
same,TGI,[11],> 100 µM
same,TGI,[51],> 100 µM
same,TGI,[12],> 100 µM
same,TGI,[52],86.4 µM
same,TGI,[13],> 100 µM
same,TGI,[14],> 100 µM
same,TGI,[53],> 100 µM
same,TGI,[15],> 100 µM
same,TGI,[16],> 100 µM
same,TGI,[17],> 100 µM
same,TGI,[18],> 100 µM
same,TGI,[54],> 100 µM
same,TGI,[19],> 100 µM
same,TGI,[20],> 100 µM
same,TGI,[23],> 100 µM
same,TGI,[24],> 100 µM
same,TGI,[25],> 100 µM
same,TGI,[26],> 100 µM
same,TGI,[27],> 100 µM
same,TGI,[28],> 100 µM
same,TGI,[29],> 100 µM
same,TGI,[31],> 100 µM
same,TGI,[55],> 100 µM
same,TGI,[56],> 100 µM
same,TGI,[32],> 100 µM
same,TGI,[33],> 100 µM
same,TGI,[35],> 100 µM
same,TGI,[36],> 100 µM
same,TGI,[38],> 100 µM
same,TGI,[39],> 100 µM
same,TGI,[41],> 100 µM
same,TGI,[42],> 100 µM
same,TGI,[45],> 100 µM
same,TGI,[46],> 100 µM
same,TGI,[47],> 100 µM
same,TGI,[48],> 100 µM
O=C1c2scc(-c3ccc(Cl)cc3)c2-n2cccc21,TGI,[2],2.78 µM
same,TGI,[3],> 100 µM
same,TGI,[4],> 100 µM
same,TGI,[6],> 100 µM
same,TGI,[7],> 100 µM
same,TGI,[8],> 100 µM
same,TGI,[50],> 100 µM
same,TGI,[9],> 100 µM
same,TGI,[53],> 100 µM
same,TGI,[15],> 100 µM
same,TGI,[16],> 100 µM
same,TGI,[17],> 100 µM
same,TGI,[18],> 100 µM
same,TGI,[57],> 100 µM
same,TGI,[58],> 100 µM
same,TGI,[19],> 100 µM
same,TGI,[20],> 100 µM
same,TGI,[21],> 100 µM
same,TGI,[24],> 100 µM
same,TGI,[25],> 100 µM
same,TGI,[27],> 100 µM
same,TGI,[29],> 100 µM
same,TGI,[31],> 100 µM
same,TGI,[55],> 100 µM
same,TGI,[56],> 100 µM
same,TGI,[33],> 100 µM
same,TGI,[34],> 100 µM
same,TGI,[35],> 100 µM
same,TGI,[36],> 100 µM
same,TGI,[37],> 100 µM
same,TGI,[40],> 100 µM
same,TGI,[41],13.7 µM
same,TGI,[42],> 100 µM
same,TGI,[43],> 100 µM
same,TGI,[46],> 100 µM
same,TGI,[47],> 100 µM
O=C(c1ccc(Br)cc1)n1c2ccc(Br)cc2c2nc3ccccc3nc21,TGI,[1],> 100 µM
same,TGI,[4],> 100 µM
same,TGI,[49],> 100 µM
same,TGI,[5],> 100 µM
same,TGI,[6],> 100 µM
same,TGI,[7],> 100 µM
same,TGI,[8],> 100 µM
same,TGI,[50],> 100 µM
same,TGI,[9],> 100 µM
same,TGI,[10],> 100 µM
same,TGI,[11],> 100 µM
same,TGI,[51],> 100 µM
same,TGI,[12],> 100 µM
same,TGI,[52],> 100 µM
same,TGI,[14],> 100 µM
same,TGI,[53],> 100 µM
same,TGI,[15],> 100 µM
same,TGI,[16],> 100 µM
same,TGI,[17],> 100 µM
same,TGI,[18],> 100 µM
same,TGI,[57],> 100 µM
same,TGI,[54],> 100 µM
same,TGI,[19],> 100 µM
same,TGI,[20],> 100 µM
same,TGI,[21],> 100 µM
same,TGI,[22],> 100 µM
same,TGI,[23],> 100 µM
same,TGI,[24],> 100 µM
same,TGI,[25],> 100 µM
same,TGI,[26],> 100 µM
same,TGI,[27],> 100 µM
same,TGI,[28],> 100 µM
same,TGI,[29],> 100 µM
same,TGI,[30],> 100 µM
same,TGI,[31],> 100 µM
same,TGI,[55],> 100 µM
same,TGI,[56],> 100 µM
same,TGI,[32],> 100 µM
same,TGI,[33],> 100 µM
same,TGI,[59],> 100 µM
same,TGI,[34],> 100 µM
same,TGI,[35],> 100 µM
same,TGI,[36],> 100 µM
same,TGI,[38],> 100 µM
same,TGI,[39],> 100 µM
same,TGI,[40],> 100 µM
same,TGI,[41],> 100 µM
same,TGI,[42],> 100 µM
same,TGI,[43],> 100 µM
same,TGI,[44],> 100 µM
same,TGI,[45],> 100 µM
same,TGI,[46],> 100 µM
same,TGI,[47],> 100 µM
same,TGI,[48],> 100 µM
O=C(Nc1ccccc1F)c1cc2ccc(O)cc2oc1=Nc1cccc(C(F)(F)F)c1,TGI,[1],17.8 µM
same,TGI,[2],38.3 µM
same,TGI,[3],> 100 µM
same,TGI,[4],19.4 µM
same,TGI,[49],8.42 µM
same,TGI,[5],19.7 µM
same,TGI,[6],4.79 µM
same,TGI,[7],33 µM
same,TGI,[8],> 100 µM
same,TGI,[50],10.6 µM
same,TGI,[9],> 100 µM
same,TGI,[10],18.1 µM
same,TGI,[11],10.9 µM
same,TGI,[51],4.84 µM
same,TGI,[12],53.7 µM
same,TGI,[13],7.75 µM
same,TGI,[14],> 100 µM
same,TGI,[53],5.54 µM
same,TGI,[15],> 100 µM
same,TGI,[16],26.8 µM
same,TGI,[17],6.52 µM
same,TGI,[18],26 µM
same,TGI,[57],34.9 µM
same,TGI,[54],> 100 µM
same,TGI,[19],22.7 µM
same,TGI,[20],> 100 µM
same,TGI,[21],67.8 µM
same,TGI,[23],4.44 µM
same,TGI,[24],> 100 µM
same,TGI,[25],18.7 µM
same,TGI,[26],9.93 µM
same,TGI,[27],> 100 µM
same,TGI,[28],12.9 µM
same,TGI,[29],> 100 µM
same,TGI,[30],5.27 µM
same,TGI,[31],> 100 µM
same,TGI,[55],> 100 µM
same,TGI,[32],13.2 µM
same,TGI,[33],> 100 µM
same,TGI,[59],22.3 µM
same,TGI,[34],36 µM
same,TGI,[35],40.7 µM
same,TGI,[36],4.91 µM
same,TGI,[37],35.2 µM
same,TGI,[39],> 100 µM
same,TGI,[41],17.7 µM
same,TGI,[42],> 100 µM
same,TGI,[43],15.8 µM
same,TGI,[45],19.3 µM
same,TGI,[46],> 100 µM
same,TGI,[47],21 µM
same,TGI,[48],15.5 µM
